In the NIST ThermoML archive (doi:10.1021/je2008582):

Conditions: Liquid, Vibrating tube method

CCCCC/C=C\C/C=C\CCCCCCCC(=O)OC [methyl (Z,Z)-9,12-octadecadienate]
Conditions | mass density [kg/m3]
270 K, 490 kPa | 904.6
270 K, 990 kPa | 904.9
270 K, 1990 kPa | 905.4
270 K, 3000 kPa | 905.9
270 K, 3990 kPa | 906.5
270 K, 5000 kPa | 907
270 K, 10000 kPa | 909.6
270 K, 20000 kPa | 914.6
270 K, 29990 kPa | 919.3
270 K, 39990 kPa | 923.8
270 K, 49970 kPa | 928.2
290 K, 500 kPa | 889.7
290 K, 990 kPa | 890
290 K, 1990 kPa | 890.6
290 K, 2990 kPa | 891.2
290 K, 3990 kPa | 891.8
290 K, 5000 kPa | 892.4
290 K, 9990 kPa | 895.2
290 K, 19990 kPa | 900.7
290 K, 30000 kPa | 905.8
290 K, 39990 kPa | 910.7
290 K, 49970 kPa | 915.3
310 K, 500 kPa | 875.1
310 K, 1000 kPa | 875.4
310 K, 1990 kPa | 876.1
310 K, 2990 kPa | 876.7
310 K, 3990 kPa | 877.4
310 K, 4990 kPa | 878
310 K, 9990 kPa | 881.1
310 K, 20000 kPa | 887
310 K, 30000 kPa | 892.5
310 K, 39990 kPa | 897.8
310 K, 49990 kPa | 902.8
330 K, 490 kPa | 860.6
330 K, 990 kPa | 860.9
330 K, 1990 kPa | 861.6
330 K, 2990 kPa | 862.4
330 K, 3990 kPa | 863.1
330 K, 4990 kPa | 863.8
330 K, 9990 kPa | 867.1
330 K, 19990 kPa | 873.5
330 K, 29980 kPa | 879.5
330 K, 39990 kPa | 885.1
330 K, 50000 kPa | 890.4
350 K, 500 kPa | 846.2
350 K, 1000 kPa | 846.6
350 K, 1990 kPa | 847.4
350 K, 2990 kPa | 848.2
350 K, 3990 kPa | 848.9
350 K, 5000 kPa | 849.7
350 K, 9990 kPa | 853.4
350 K, 19990 kPa | 860.3
350 K, 29990 kPa | 866.7
350 K, 40000 kPa | 872.7
350 K, 49980 kPa | 878.4
370 K, 490 kPa | 831.6
370 K, 990 kPa | 832.1
370 K, 1990 kPa | 832.9
370 K, 2990 kPa | 833.8
370 K, 4000 kPa | 834.6
370 K, 5000 kPa | 835.5
370 K, 10000 kPa | 839.5
370 K, 19990 kPa | 847
370 K, 29990 kPa | 854
370 K, 39990 kPa | 860.4
370 K, 49980 kPa | 866.4
390 K, 490 kPa | 817.1
390 K, 990 kPa | 817.6
390 K, 1990 kPa | 818.5
390 K, 3000 kPa | 819.5
390 K, 3990 kPa | 820.4
390 K, 4990 kPa | 821.3
390 K, 9990 kPa | 825.8
390 K, 20000 kPa | 834
390 K, 29990 kPa | 841.4
390 K, 40000 kPa | 848.3
390 K, 49990 kPa | 854.7
410 K, 490 kPa | 802.5
410 K, 1000 kPa | 803
410 K, 2000 kPa | 804.1
410 K, 2990 kPa | 805.1
410 K, 3990 kPa | 806.2
410 K, 4990 kPa | 807.2
410 K, 9990 kPa | 812.1
410 K, 19990 kPa | 821
410 K, 29990 kPa | 829.1
410 K, 40000 kPa | 836.5
410 K, 49970 kPa | 843.3
430 K, 490 kPa | 787.5
430 K, 1000 kPa | 788.1
430 K, 1990 kPa | 789.3
430 K, 2990 kPa | 790.5
430 K, 3990 kPa | 791.6
430 K, 5000 kPa | 792.7
430 K, 9990 kPa | 798.1
430 K, 19990 kPa | 807.9
430 K, 29990 kPa | 816.6
430 K, 40000 kPa | 824.5
430 K, 50010 kPa | 831.8
450 K, 490 kPa | 772.5
450 K, 990 kPa | 773.2
450 K, 2000 kPa | 774.5
450 K, 2990 kPa | 775.8
450 K, 4000 kPa | 777.1
450 K, 4990 kPa | 778.3
450 K, 10000 kPa | 784.3
450 K, 19990 kPa | 794.9
450 K, 30000 kPa | 804.3
450 K, 39990 kPa | 812.8
450 K, 49980 kPa | 820.6
470 K, 500 kPa | 757.5
470 K, 990 kPa | 758.3
470 K, 1990 kPa | 759.7
470 K, 3000 kPa | 761.2
470 K, 3990 kPa | 762.6
470 K, 4990 kPa | 764
470 K, 9990 kPa | 770.6
470 K, 19990 kPa | 782.2
470 K, 29990 kPa | 792.4
470 K, 39990 kPa | 801.5
470 K, 49980 kPa | 809.7

CCCCCCCC/C=C\CCCCCCCC(=O)OC [methyl cis-9-octadecenoate]
Conditions | mass density [kg/m3]
270 K, 490 kPa | 892.3
270 K, 990 kPa | 892.6
270 K, 1990 kPa | 893.2
270 K, 2990 kPa | 893.7
270 K, 3990 kPa | 894.3
270 K, 4990 kPa | 894.8
270 K, 9990 kPa | 897.4
270 K, 19990 kPa | 902.4
270 K, 29990 kPa | 907.1
270 K, 39990 kPa | 911.7
270 K, 49830 kPa | 915.9
290 K, 490 kPa | 877.7
290 K, 1000 kPa | 878
290 K, 2000 kPa | 878.6
290 K, 3000 kPa | 879.2
290 K, 3990 kPa | 879.8
290 K, 4990 kPa | 880.4
290 K, 10000 kPa | 883.3
290 K, 19990 kPa | 888.7
290 K, 29990 kPa | 893.8
290 K, 39990 kPa | 898.7
290 K, 49960 kPa | 903.4
310 K, 490 kPa | 863.3
310 K, 990 kPa | 863.6
310 K, 2000 kPa | 864.3
310 K, 3000 kPa | 865
310 K, 4000 kPa | 865.6
310 K, 5000 kPa | 866.2
310 K, 9990 kPa | 869.3
310 K, 20000 kPa | 875.3
310 K, 29990 kPa | 880.8
310 K, 39990 kPa | 886.1
310 K, 49990 kPa | 891.1
330 K, 500 kPa | 849
330 K, 1000 kPa | 849.3
330 K, 2000 kPa | 850.1
330 K, 3000 kPa | 850.8
330 K, 3990 kPa | 851.5
330 K, 4990 kPa | 852.2
330 K, 10000 kPa | 855.6
330 K, 19990 kPa | 862
330 K, 29990 kPa | 868
330 K, 39990 kPa | 873.6
330 K, 49990 kPa | 878.9
350 K, 500 kPa | 834.6
350 K, 990 kPa | 835
350 K, 2000 kPa | 835.8
350 K, 2990 kPa | 836.6
350 K, 3990 kPa | 837.3
350 K, 5000 kPa | 838.1
350 K, 9990 kPa | 841.8
350 K, 20000 kPa | 848.8
350 K, 30000 kPa | 855.3
350 K, 40000 kPa | 861.3
350 K, 49980 kPa | 867
370 K, 500 kPa | 820.1
370 K, 990 kPa | 820.6
370 K, 1990 kPa | 821.4
370 K, 2990 kPa | 822.3
370 K, 3990 kPa | 823.2
370 K, 5010 kPa | 824
370 K, 10000 kPa | 828.1
370 K, 20010 kPa | 835.7
370 K, 29990 kPa | 842.6
370 K, 39990 kPa | 849.1
370 K, 49970 kPa | 855.1
390 K, 490 kPa | 805.7
390 K, 990 kPa | 806.2
390 K, 2000 kPa | 807.1
390 K, 3000 kPa | 808.1
390 K, 3990 kPa | 809
390 K, 5000 kPa | 810
390 K, 10000 kPa | 814.5
390 K, 19990 kPa | 822.7
390 K, 29980 kPa | 830.2
390 K, 40000 kPa | 837.2
390 K, 49990 kPa | 843.6
410 K, 490 kPa | 791
410 K, 990 kPa | 791.6
410 K, 2000 kPa | 792.7
410 K, 3000 kPa | 793.7
410 K, 3990 kPa | 794.8
410 K, 5000 kPa | 795.8
410 K, 10000 kPa | 800.8
410 K, 20000 kPa | 809.8
410 K, 30000 kPa | 817.9
410 K, 39990 kPa | 825.3
410 K, 50000 kPa | 832.2
430 K, 500 kPa | 776.2
430 K, 1000 kPa | 776.8
430 K, 1990 kPa | 778
430 K, 3000 kPa | 779.2
430 K, 3990 kPa | 780.3
430 K, 4990 kPa | 781.5
430 K, 9990 kPa | 786.9
430 K, 19990 kPa | 796.7
430 K, 29990 kPa | 805.5
430 K, 39990 kPa | 813.5
430 K, 49990 kPa | 820.8
450 K, 490 kPa | 761.2
450 K, 1000 kPa | 761.9
450 K, 1990 kPa | 763.2
450 K, 2990 kPa | 764.5
450 K, 3990 kPa | 765.8
450 K, 5000 kPa | 767.1
450 K, 10000 kPa | 773.1
450 K, 20000 kPa | 783.9
450 K, 29990 kPa | 793.3
450 K, 39990 kPa | 801.9
450 K, 50010 kPa | 809.7
470 K, 490 kPa | 746.3
470 K, 990 kPa | 747
470 K, 2000 kPa | 748.6
470 K, 2990 kPa | 750
470 K, 3990 kPa | 751.5
470 K, 5010 kPa | 752.9
470 K, 10000 kPa | 759.5
470 K, 19990 kPa | 771.2
470 K, 29990 kPa | 781.5
470 K, 39990 kPa | 790.6
470 K, 49970 kPa | 798.8
